Results taken from patent publication US10711036B2, “MALT1 inhibitors and uses thereof” (Cornell University, priority 2015, dated 2020).
Where a SMILES comes first, the peptide text is derived from it. [ ]: non-standard residue; d: D form. The star is where a group is joined. ξ: configuration not given here. Ile(3ξ) = CCC(C)[C@H](N)C(=O)O; Chg = N[C@H](C(=O)O)C1CCCCC1; 3Abz = Nc1cccc(C(=O)O)c1; Ac5c = NC1(C(=O)O)CCCC1; Cbz = O=C(OCc1ccccc1)*; CH2F = FC*

Columns and labels:
OCI-LY3 [1] = experiment: Maximum killing effect on OCI-LY3; assay type: cell-based, human
Protocol: (§1) The maximum killing effects on cell-lines OCI-LY3, TMD8, and OCI-LY1 were also measured for select compounds at inhibitor concentration of 20 μM and 5 μM. TMD8 is another line of ABC type diffuse large-B cell lymphoma, while OCI-LY1 is a DLBCL line of the germinal center B-cell subtype.

MALT1 = MALT1 (Homo sapiens (Human), UniProt Q9UDY8); experiment: Inhibition constants (Ki) for inhibition of MALT1; assay type: biochemical; conditions: 100 nM MALT1 used for the assay
Protocol: For exemplary compounds of the disclosure, Ki for inhibition of MALT1 was measured (Table E11). A concentration of 100 nM MALT1 was used for the assay.

TMD8 = experiment: Maximum killing effect on TMD8; assay type: cell-based
Protocol: as §1

OCI-LY3 [2] = experiment: Cell growth inhibition assay (CellTiter-Glo, 96 hours), OCI-LY3; assay type: cell-based, human; conditions: Homo sapiens, OCI-LY3 cells, treated at t=0 and t=48 hours, ATP luminescence
Protocol: DLBCL cell lines were grown in exponential growth conditions during the 96 hours of treatment. Cells were treated twice: at t=0 and t=48 hours, and cell viability was determined by ATP quantification using a luminescent method ([…]-GLO, Promega, Madison, Wis.). Cell viability in drug-treated cells was normalized to vehicle controls (fractional viability) and results are given as 1-fractional viability.
Experiments were Performed in Triplicate.

OCI-LY1 = experiment: Maximum killing effect on OCI-LY1; assay type: cell-based
Protocol: as §1

Chain of MALT1 (Q9UDY8 whole entry): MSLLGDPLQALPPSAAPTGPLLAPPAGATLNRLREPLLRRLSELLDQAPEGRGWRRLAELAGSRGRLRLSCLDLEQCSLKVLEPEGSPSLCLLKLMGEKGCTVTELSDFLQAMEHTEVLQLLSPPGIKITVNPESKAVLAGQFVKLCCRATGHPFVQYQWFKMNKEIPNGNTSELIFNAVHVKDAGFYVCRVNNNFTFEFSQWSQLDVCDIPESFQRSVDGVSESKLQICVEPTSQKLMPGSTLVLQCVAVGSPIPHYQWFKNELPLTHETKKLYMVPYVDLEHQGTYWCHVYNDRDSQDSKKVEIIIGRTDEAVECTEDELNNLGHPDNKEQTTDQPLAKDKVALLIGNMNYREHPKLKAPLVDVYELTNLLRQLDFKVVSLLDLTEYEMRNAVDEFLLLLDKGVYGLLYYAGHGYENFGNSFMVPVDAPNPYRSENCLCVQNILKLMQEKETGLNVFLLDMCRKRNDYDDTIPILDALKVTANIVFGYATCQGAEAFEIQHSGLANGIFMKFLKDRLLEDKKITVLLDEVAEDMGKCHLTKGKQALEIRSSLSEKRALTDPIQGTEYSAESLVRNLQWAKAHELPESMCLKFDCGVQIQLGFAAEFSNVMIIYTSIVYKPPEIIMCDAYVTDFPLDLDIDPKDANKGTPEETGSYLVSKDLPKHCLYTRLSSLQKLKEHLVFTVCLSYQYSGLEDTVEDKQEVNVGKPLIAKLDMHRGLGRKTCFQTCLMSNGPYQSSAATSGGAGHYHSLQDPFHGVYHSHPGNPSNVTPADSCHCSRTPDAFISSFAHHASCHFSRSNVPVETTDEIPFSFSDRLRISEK

| Structure (SMILES) | Ki (MALT1) | GI50 (OCI-LY3 [2]) | further results |
| --- | --- | --- | --- |
| N=C(N)NCCC[C@H](NC(=O)[C@@H]1CCCN1C(=O)[C@@H](NC(=O)OCc1ccccc1)C1CCCCC1)C(=O)CF [Compound 102] (Cbz-[Chg]-Pro-Arg-CH2F) | 44 nM | 1450 nM | Maximum killing effect (OCI-LY3 [1]; OCI-LY3, 20 μM): 85%; Maximum killing effect (TMD8; TMD8, 20 μM): 54%; Maximum killing effect (OCI-LY1; OCI-LY1, 20 μM): 19% |
| CC(C)[C@H](NC(=O)c1ccccc1Br)C(=O)N1CCC[C@H]1C(=O)N[C@@H](CCCNC(=N)N)C(=O)CF [Compound 114] | 105 nM | 4240 nM | Maximum killing effect (OCI-LY3 [1]; OCI-LY3, 20 μM): 80%; Maximum killing effect (TMD8; TMD8, 20 μM): 40%; Maximum killing effect (OCI-LY1; OCI-LY1, 20 μM): 9% |
| CC(C)[C@H](NC(=O)c1cccc(Br)c1)C(=O)N1CCC[C@H]1C(=O)N[C@@H](CCCNC(=N)N)C(=O)CF [Compound 115] | 41 nM | 530 nM | Maximum killing effect (OCI-LY3 [1]; OCI-LY3, 20 μM): 84%; Maximum killing effect (TMD8; TMD8, 20 μM): 64%; Maximum killing effect (OCI-LY1; OCI-LY1, 20 μM): 15% |
| CC(C)[C@H](NC(=O)C1CCCCC1)C(=O)N1CCC[C@H]1C(=O)N[C@@H](CCCNC(=N)N)C(=O)CF [Compound 120] | 56 nM | 940 nM | Maximum killing effect (OCI-LY3 [1]; OCI-LY3, 20 μM): 81%; Maximum killing effect (TMD8; TMD8, 20 μM): 52%; Maximum killing effect (OCI-LY1; OCI-LY1, 20 μM): <0% |
| CC(=O)Nc1cccc(C(=O)N[C@H](C(=O)N2CCC[C@H]2C(=O)N[C@@H](CCCNC(=N)N)C(=O)CF)C(C)C)c1 [Compound 133] (Ac-[3Abz]VPR-CH2F) | 54 nM | > 20000 nM |  |
| CC(C)[C@H](NC(=O)c1cccc(C#N)c1)C(=O)N1CCC[C@H]1C(=O)N[C@@H](CCCNC(=N)N)C(=O)CF [Compound 134] | 39 nM | 3690 nM |  |
| CC(C)[C@H](NC(=O)c1ccc(C(F)(F)F)cc1)C(=O)N1CCC[C@H]1C(=O)N[C@@H](CCCNC(=N)N)C(=O)CF [Compound 135] | 132 nM | 120 nM |  |
| CC(C)[C@H](NC(=O)c1ccc(Cl)cc1)C(=O)N1CCC[C@H]1C(=O)N[C@@H](CCCNC(=N)N)C(=O)CF [Compound 136] | 67 nM | 1240 nM |  |
| CC(C)[C@H](NC(=O)c1ccc(-c2ccccc2)cc1)C(=O)N1CCC[C@H]1C(=O)N[C@@H](CCCNC(=N)N)C(=O)CF [Compound 137] | 30 nM | 550 nM |  |
| CC(C)[C@H](NC(=O)c1ncc(-c2ccccc2)s1)C(=O)N1CCC[C@H]1C(=O)N[C@@H](CCCNC(=N)N)C(=O)CF [Compound 139] | 121 nM | 1750 nM |  |
| CC(C)[C@H](NC(=O)OCc1ccccc1)C(=O)N[C@@H](CO)C(=O)N[C@@H](CCCNC(=N)N)C(=O)CF [Compound 140] | 64 nM | 290 nM |  |
| N=C(N)NCCC[C@H](NC(=O)[C@@H]1CCCN1C(=O)[C@@H](NC(=O)c1ccc(Br)cc1)C1CCCCC1)C(=O)CF [Compound 143] | 45 nM | 130 nM |  |
| CC(C)[C@H](NC(=O)c1ccc(Br)cc1)C(=O)N1CCCC[C@H]1C(=O)N[C@@H](CCCNC(=N)N)C(=O)CF [Compound 144] | 79 nM | 460 nM |  |
| CC(C)[C@H](NC(=O)c1ccc(OC(F)(F)F)cc1)C(=O)N1CCC[C@H]1C(=O)N[C@@H](CCCNC(=N)N)C(=O)CF [Compound 145] | 27 nM | 700 nM |  |
| CC(C)[C@H](NC(=O)c1ccc(Cl)c(C#N)c1)C(=O)N1CCC[C@H]1C(=O)N[C@@H](CCCNC(=N)N)C(=O)CF [Compound 147] | 24 nM | 550 nM |  |
| CC(C)[C@H](NC(=O)c1cccc(OC(F)(F)F)c1)C(=O)N1CCC[C@H]1C(=O)N[C@@H](CCCNC(=N)N)C(=O)CF [Compound 148] | 15 nM | 530 nM |  |
| CC(C)[C@H](NC(=O)c1cccc2ccccc12)C(=O)N1CCC[C@H]1C(=O)N[C@@H](CCCNC(=N)N)C(=O)CF [Compound 153] | 102 nM | 160 nM |  |
| CC(C)[C@H](NC(=O)/C=C/c1ccccc1)C(=O)N1CCC[C@H]1C(=O)N[C@@H](CCCNC(=N)N)C(=O)CF [Compound 154] | 36 nM | 110 nM |  |
| CC(C)[C@H](NC(=O)c1ccc2ccccc2n1)C(=O)N1CCC[C@H]1C(=O)N[C@@H](CCCNC(=N)N)C(=O)CF [Compound 155] | 55 nM | 570 nM |  |
| CC(C)[C@H](NC(=O)c1cnc2ccccc2c1)C(=O)N1CCC[C@H]1C(=O)N[C@@H](CCCNC(=N)N)C(=O)CF [Compound 156] | 40 nM | 3880 nM |  |
| CC(C)[C@H](NC(=O)c1ccc2cnccc2c1)C(=O)N1CCC[C@H]1C(=O)N[C@@H](CCCNC(=N)N)C(=O)CF [Compound 157] | 59 nM | 630 nM |  |
| CC(C)[C@H](NC(=O)c1ccc2ccncc2c1)C(=O)N1CCC[C@H]1C(=O)N[C@@H](CCCNC(=N)N)C(=O)CF [Compound 158] | 110 nM | 1700 nM |  |

| Structure (SMILES) | Ki (MALT1) | GI50 (OCI-LY3 [2]) | further results |
| --- | --- | --- | --- |
| CC(C)[C@H](NC(=O)c1ccnc2ccccc12)C(=O)N1CCC[C@H]1C(=O)N[C@@H](CCCNC(=N)N)C(=O)CF [Compound 159] | 139 nM | 4220 nM |  |
| CC(C)[C@H](NC(=O)c1ccc(F)cc1)C(=O)N1CCC[C@H]1C(=O)N[C@@H](CCCNC(=N)N)C(=O)CF [Compound 160] | 13 nM | 2340 nM |  |
| CC(C)[C@H](NC(=O)c1ccc(F)cc1)C(=O)N1CCC[C@H]1C(=O)N[C@H](CCCNC(=N)N)C(=O)CF [Compound 161] | 346 nM | 910 nM |  |
| CC(C)[C@H](NC(=O)c1ccc(C(C)(C)C)cc1)C(=O)N1CCC[C@H]1C(=O)N[C@@H](CCCNC(=N)N)C(=O)CF [Compound 162] | 45 nM | 980 nM |  |
| CC(C)[C@H](NC(=O)Nc1ccc(Cl)cc1)C(=O)N1CCC[C@H]1C(=O)N[C@@H](CCCNC(=N)N)C(=O)CF [Compound 164] | 62 nM | 780 nM |  |
| CC(C)[C@H](NC(=O)Nc1cccc(Cl)c1)C(=O)N1CCC[C@H]1C(=O)N[C@@H](CCCNC(=N)N)C(=O)CF [Compound 165] | 27 nM | 520 nM |  |
| CC(C)[C@H](NC(=O)c1ccc(Br)cc1)C(=O)N1C[C@H](O)C[C@H]1C(=O)N[C@@H](CCCNC(=N)N)C(=O)CF [Compound 171] | 50 nM | 70 nM |  |
| N=C(N)NCCC[C@H](NC(=O)[C@H](CO)NC(=O)[C@@H](NC(=O)c1ccc(Br)cc1)C1CCCCC1)C(=O)CF [Compound 173] | 46 nM | 240 nM |  |
| CC(C)[C@H](NC(=O)c1ccc(Br)cc1)C(=O)N1COC[C@H]1C(=O)N[C@@H](CCCNC(=N)N)C(=O)CF [Compound 174] | 20 nM | 120 nM |  |
| CC(C)[C@H](NC(=O)c1ccc(Br)cc1)C(=O)N1CCOC[C@H]1C(=O)N[C@@H](CCCNC(=N)N)C(=O)CF [Compound 175] | 70 nM | 460 nM |  |
| CC(C)[C@H](NC(=O)c1ccc(Br)cc1)C(=O)N1CC[C@H]1C(=O)N[C@@H](CCCNC(=N)N)C(=O)CF [Compound 176] | 118 nM | 770 nM |  |
| CC(C)[C@H](NC(=O)c1ccc(Br)cc1F)C(=O)N1CCC[C@H]1C(=O)N[C@@H](CCCNC(=N)N)C(=O)CF [Compound 179] | 71 nM | 810 nM |  |
| CCC(C)[C@H](NC(=O)OCc1ccccc1)C(=O)N1CCC[C@H]1C(=O)N[C@@H](CCCNC(=N)N)C(=O)CF (stereo partly drawn) [Compound 180] (Cbz-[Ile(3ξ)]-Pro-Arg-CH2F) | 30 nM | 2440 nM |  |
| N=C(N)NCCC[C@H](NC(=O)[C@@H]1CCCN1C(=O)C1(NC(=O)OCc2ccccc2)CCCC1)C(=O)CF [Compound 181] (Cbz-[Ac5c]-Pro-Arg-CH2F) | 1180 nM | 4310 nM |  |
| N=C(N)NCCC[C@H](NC(=O)[C@@H]1CCCN1C(=O)[C@H](Cc1ccccc1)NC(=O)OCc1ccccc1)C(=O)CF [Compound 182] | 76 nM | 2300 nM |  |
| Cc1cc(Br)ccc1C(=O)N[C@H](C(=O)N1CCC[C@H]1C(=O)N[C@@H](CCCNC(=N)N)C(=O)CF)C(C)C [Compound 183] | 40 nM | 850 nM |  |
| CC(C)C[C@H](NC(=O)OCc1ccccc1)C(=O)N1CCC[C@H]1C(=O)N[C@@H](CCCNC(=N)N)C(=O)CF [Compound 184] (Cbz-Leu-Pro-Arg-CH2F) | 93 nM | 5490 nM |  |
| CC(C)C[C@H](NC(=O)c1ccc(Br)cc1)C(=O)N1CCC[C@H]1C(=O)N[C@@H](CCCNC(=N)N)C(=O)CF [Compound 185] | 182 nM | 1100 nM |  |
| N=C(N)NCCC[C@H](NC(=O)[C@@H]1CCCN1C(=O)[C@H](Cc1ccc(C(F)(F)F)cc1)NC(=O)c1ccc(Br)cc1)C(=O)CF [Compound 186] | 448 nM | 1370 nM |  |
| CC(C)[C@H](NC(=O)OCc1ccccc1)C(=O)N[C@@H](CCCNC(=N)N)C(=O)N1CCC[C@H]1C(=O)N[C@@H](CCCNC(=N)N)C(=O)CF [Z-VRPR-fmk, reference compound] |  |  | Maximum killing effect (OCI-LY3 [1]; OCI-LY3, 5 μM): 42%; Maximum killing effect (OCI-LY3 [1]; OCI-LY3, 20 μM): 62%; Maximum killing effect (TMD8; TMD8, 5 μM): 27%; Maximum killing effect (TMD8; TMD8, 20 μM): 67%; Maximum killing effect (OCI-LY1; OCI-LY1, 5 μM): <0%; Maximum killing effect (OCI-LY1; OCI-LY1, 20 μM): <0% |
| CN1CCCC(CN2c3ccccc3Sc3ccccc32)C1 (stereo not shown) [mepazine, reference compound] |  |  | Maximum killing effect (OCI-LY3 [1]; OCI-LY3, 5 μM): 35%; Maximum killing effect (OCI-LY3 [1]; OCI-LY3, 20 μM): 97%; Maximum killing effect (TMD8; TMD8, 5 μM): 32%; Maximum killing effect (TMD8; TMD8, 20 μM): 99%; Maximum killing effect (OCI-LY1; OCI-LY1, 5 μM): 6%; Maximum killing effect (OCI-LY1; OCI-LY1, 20 μM): 82% |
